Key:
[1] = pKa of chelating agents and catechin (Table 1); assay type: physicochemical
Source text: Chelation is a type of bonding of ions and molecules to metal ions. It involves the formation or presence of two or more separate coordinate bonds between a ligand and a metal atom. Without being bound by theory, the stain removal effectiveness of a composition comprising one or more chelating agents may depend at least in part on the ability of the chelating agent(s) to bind to iron, which may be present in some stains, such as fruit or beverage stains. Several factors may impact a chelating agent's ability to bind to iron. These factors may include the pKa of the chelating agent compared to the wash pH, and the affinity of the chelating agent to bind with other metals, materials, or compositions in the wash.
Various embodiments may provide or employ a composition that comprises one or more chelating agents having a pKa that is less than the wash pH.

[2] = calcium binding efficiency, logK(β110); assay type: physicochemical; details: one metal, one ligand, no protons
Source text: (§1) The binding efficiencies may be expressed as a binding constant. A binding constant (also called formation constant or stability constant) is an equilibrium constant for the formation of a complex in solution. It is a measure of the strength of the interaction between the reagents that come together to form the complex. As an example, various stains may comprise catechins as shown in Formula 13.
(§2) The chelating agent(s) according to various embodiments may, therefore, be selected to ensure a lower binding efficiency with calcium and a higher binding efficiency with iron at the wash pH.
(§3) In Table 1, the reaction between metals and ligands is described in terms of logK(β110). In this context, K, is the equilibrium constant for the reaction between ligands and metals. The higher K, the more metal is bound. This is illustrated in the following example.
(§4) β, represents the binding efficiency and receives some subscripts (βmlh) to indicate how many metals (m), ligands (l), and protons (h) respectively are involved.

[3] = iron binding efficiency, logK(β110); assay type: physicochemical; details: one metal, one ligand, no protons
Source text: as §1, §2, §3, §4

[4] = Example 1 stain removal in tergotometer wash, unit dose compositions at pH 7.0/8.5/10.0; details: treatments with pH<10.0; tropolone compared to HEDP or no chelating agent
Source text: Image analysis may be used to compare each stain to an unstained fabric control. Software may be used to convert images taken into standard colorimetric values and to compare these to standards based on the commonly used Macbeth Color Rendition Chart, assigning each stain a colorimetric value (Stain Level). The CIELAB color space, also referred to as L*a*b*, is a color space defined by the International Commission on Illumination (abbreviated CIE) in 1976.[a] It expresses color as three values: L* for perceptual lightness and a* and b* for the four unique colors of human vision: red, green, blue and yellow. The lightness value, L* defines black at 0 and white at 100. The a* axis is relative to the green-magenta opponent colors, with negative values toward green and positive values toward magenta. The b* axis represents the blue-yellow opponents, with negative numbers toward blue and positive toward yellow. In the following examples, various fabrics were analyzed using commercially available image analysis software for L*a*b* values. SRI values were then calculated from the L*a*b* values using the formula shown. The higher the SRI, the better the stain removal. […] One dose of detergent treatment, as detailed in Table 3 below, was added to a tergotometer and was evaluated using the Washing Method.

[5] = Example 3 stain removal in tergotometer wash, synthetic fabric; details: polyester, vs HEDP
Source text: Image analysis may be used to compare each stain to an unstained fabric control. Software may be used to convert images taken into standard colorimetric values and to compare these to standards based on the commonly used Macbeth Color Rendition Chart, assigning each stain a colorimetric value (Stain Level). The CIELAB color space, also referred to as L*a*b*, is a color space defined by the International Commission on Illumination (abbreviated CIE) in 1976.[a] It expresses color as three values: L* for perceptual lightness and a* and b* for the four unique colors of human vision: red, green, blue and yellow. The lightness value, L* defines black at 0 and white at 100. The a* axis is relative to the green-magenta opponent colors, with negative values toward green and positive values toward magenta. The b* axis represents the blue-yellow opponents, with negative numbers toward blue and positive toward yellow. In the following examples, various fabrics were analyzed using commercially available image analysis software for L*a*b* values. SRI values were then calculated from the L*a*b* values using the formula shown. The higher the SRI, the better the stain removal. […]

pKa ([1]; fourth listed pKa) | pKa ([1]; second listed pKa) | pKa ([1]; third listed pKa) | Ca^2+ logK(β110) [2] | Ca^2+ logK(β110) ([2]; listed as catechins) | Fe (III) logK(β110) [3] | Fe (III) logK(β110) ([3]; listed as catechins) | SMILES | pKa ([1]; first listed pKa) | stain removal performance (in words) [4] | stain removal on synthetics fabric (in words) [5]
13.4 | 9.5 | 11.2 | 3.5 | about 3.5 | 19.2 | about 19.2 | Oc1cc(O)c2c(c1)OC(c1ccc(O)c(O)c1)C(O)C2 (stereo not shown) [Catechin] |  |  | 
10.3 | 2.5 | 7.3 | 6.8 |  | 14.1 |  | CC(O)(P(=O)(O)O)P(=O)(O)O [HEDP, 1-Hydroxyethylidene-1,1-diphosphonic acid] | 1.7 |  | 
 |  |  | 3.1 |  | 10.5 |  | O=c1cccccc1O [Tropolone, 2-Hydroxycyclohepta-2,4,6-trien-1-one] |  | improved stain removal performance | significantly improved stain removal

SMILES | pKa ([1]; fourth listed pKa) | pKa ([1]; second listed pKa) | pKa ([1]; third listed pKa) | Ca^2+ logK(β110) [2] | Ca^2+ logK(β110) ([2]; listed as catechins) | Fe (III) logK(β110) [3] | Fe (III) logK(β110) ([3]; listed as catechins) | pKa ([1]; first listed pKa) | stain removal performance (in words) [4] | stain removal on synthetics fabric (in words) [5]
CC(C)c1cccc(=O)c(O)c1 [Hinokitiol, 2-Hydroxy-6-(propan-2-yl)cyclohepta-2,4,6-trien-1-one] |  |  |  | 2.2 |  | 12.9 |  | about 7 | improved stain removal performance | significantly improved stain removal

— US20250011687A1, “BIODEGRADABLE CHELATING AGENTS AND METHODS FOR FABRIC CARE” (The Procter & Gamble Company, priority 2023, published 2025)
